Assay results as given in patent US4784958A, “1,4-dihydropyridine derivatives and 1,4-dihydroquinoline derivatives radioactively labelled with ^125 I, their preparation, and their use in testing medicaments” (priority 1983, dated 1988).
Like-named read-outs stand apart in the source and are kept apart here.

Columns and labels:
[1] = target: T1, guinea-pig skeletal muscle membranes (1,4-dihydropyridine receptors / calcium channel) (Cavia porcellus, UniProt A0A286X7I0); assay: Competition radioreceptor assay with the ^125 I-labelled 1,4-dihydropyridine of Example 2; assay type: binding
T1 construct: membrane fractions from guinea-pig brain, cardiac muscle and skeletal muscle; from tissue; host or cells: guinea-pig skeletal muscle membranes
Method: In order to separate the free ligand from the bound ligand, 10% (w/v) polyethylene glycol 6000 was added to ice-cold 10 mM TRIS HCl buffer, pH 7.4, followed by 20 mM MgCl2 (3.5 ml), the sample was diluted, suction filtered in vacuo over a glass fibre filter, and the glass fibre filter was rewashed twice with 3.5 ml of the same buffer. The particle-bound radioactivity retained on the filters was then measured.
The data in Table 1 are mean values (±asymptotic standard deviation) from 3 independent experiments in which various calcium antagonists and derivatives or precursors of calcium antagonists were used as competitors with the ^125 I-labelled 1,4-dihydropyridine ("ligand") obtained in Example 2. Guinea-pig skeletal muscle membranes were used as receptor material. The concentration of the labelled ligand was 20-30 pmole/l and the experimental temperature was 25° C. 6 to 9 different concentrations of the checked substances were used (in each case as duplicate) and the measured binding data were optimally adapted by means of a computer program (DeLean A., Munson P. J., Rodbard D. (1978). Simultaneous analysis of families of sigmoid curves: application to bioassay, radioligand assay and physiological dose-response curves. Am J. Physiol. 4 E97-102). The stereospecifity of the binding for chiral 1,4-dihydropyridines was investigated as an important criterion for the receptor binding of the ^125 I-labelled 1,4-dihydropyridine in group 1. […] The EC50 value is the concentration of the substance stimulating a semi-maximum specific binding of the ligand.

[2] = target: T2, skeletal muscle membranes (1,4-dihydropyridine receptors) (Cavia porcellus, UniProt A0A286X7I0); assay: Saturation analysis, binding of ^125 I-labelled 1,4-dihydropyridine to skeletal muscle membranes; design: species or system guinea-pig; details: 25° C.
T2 construct: membrane fractions from guinea-pig brain, cardiac muscle and skeletal muscle; from tissue; host or cells: guinea-pig skeletal muscle membranes
Method: (§1) Aliquots of the obtained and ^125 I-labelled 1,4-dihydropyridine are dried in a stream of nitrogen, incubated with buffer (50 mM TRIS-HCl, pH 7.4, to which the protease inhibitor phenylmethylsulphonyl fluoride has been added (0.1 mmole/l)) and membrane fractions from guinea-pig brain, cardiac muscle and skeletal muscle (prepared as described in Drug Development 9: 63-98 (1983); Naunyn-Schmiedeberg's Arch. Pharmacol. 321: 80-83 (1983) and FEBS Lett 148: 331-337 (1982)) at 25° C. in 0.1 ml volume until equilibrium is reached, and the specific binding (defined as the difference in the binding of the ^125 I-labelled 1,4-dihydropyridine in the absence and presence of 1 μmole/l of Nimodipin) is measured by means of the filtration technique (to separate bound and free ^125 I-labelled 1,4-dihydropyridine). […] The particle-bound radioactivity retained on the filters was then measured.
(§2) The following formula was used to calculate the concentration of the free ligand: (T. a)-B, where T is the total concentration of the ligand, a is a factor describing the binding capacity of the ligand, and B is the concentration of the specifically bound ligand in equilibrium. The factor a was determined experimentally by saturating the radioactive ligand with binding sites (receptors) (described in FEBS Lett. 148, 331-337, 1982; Naunyn Schmiedeberg's Arch. Pharmacol 321, 7-10, 1982). […]

[3] = Stability of the ^125 I-labelled 1,4-dihydropyridine (HPLC, thin layer chromatography); assay type: physicochemical
Method: The following formula was used to calculate the concentration of the free ligand: (T. a)-B, where T is the total concentration of the ligand, a is a factor describing the binding capacity of the ligand, and B is the concentration of the specifically bound ligand in equilibrium. The factor a was determined experimentally by saturating the radioactive ligand with binding sites (receptors) (described in FEBS Lett. 148, 331-337, 1982; Naunyn Schmiedeberg's Arch. Pharmacol 321, 7-10, 1982). The factor "a" was 0.5 for the asymmetric 1,4-dihydropyridine derivative, in agreement with the theoretically required capacity of the receptor (R) and (S) to differentiate enantiomers of the ^125 I-labelled 1,4-dihydropyridine (stereospecifity of the binding). The ^125 I-labelled 1,4-dihydropyridine is the racemic mixture of (R) and (S) enantiomers. A dissociation constant of 350 pmole/l (25° C.) was found for muscle membranes (not illustrated). The stability of the ^125 I-labelled 1,4-dihydropyridine was checked under the following conditions by conventional methods (HPLC, thin layeer chromatography): buffer 50 mM TRIS HCl, pH 7.4, 25° C., 4 hours; muscle membrane in buffer, 25° C., 4 hours; as well as storage in benzene or absolute ethanol at -20° C. for up to 21 days after preparation of the ligand. In no case were the radiochemical impurities greater than 10%.

[4] = target: T3, 1,4-dihydropyridine receptors in guinea-pig brain membranes (Cavia porcellus, UniProt O35505); assay: Saturation analysis, binding of ^125 I-labelled 1,4-dihydropyridine to brain membranes; details: 25° C., read-out: dissociation constant (conclusion)
T3 construct: 1,4-dihydropyridine receptors in guinea-pig brain membranes; from tissue; host or cells: guinea-pig brain membranes
Method: as §1, §2

[5] = guinea-pig skeletal muscle membranes, ligand 20-30 pmole/l, 25° C., mean ± asymptotic standard deviation, 3 independent experiments
[6] = read-out: IC50 (50% inhibition of the specific binding of the ligand in the radioreceptor assay), guinea-pig skeletal muscle membranes, ligand 20-30 pmole/l, 25° C., mean ± asymptotic standard deviation, 3 independent experiments

T1 sequence (A0A286X7I0 1-1867): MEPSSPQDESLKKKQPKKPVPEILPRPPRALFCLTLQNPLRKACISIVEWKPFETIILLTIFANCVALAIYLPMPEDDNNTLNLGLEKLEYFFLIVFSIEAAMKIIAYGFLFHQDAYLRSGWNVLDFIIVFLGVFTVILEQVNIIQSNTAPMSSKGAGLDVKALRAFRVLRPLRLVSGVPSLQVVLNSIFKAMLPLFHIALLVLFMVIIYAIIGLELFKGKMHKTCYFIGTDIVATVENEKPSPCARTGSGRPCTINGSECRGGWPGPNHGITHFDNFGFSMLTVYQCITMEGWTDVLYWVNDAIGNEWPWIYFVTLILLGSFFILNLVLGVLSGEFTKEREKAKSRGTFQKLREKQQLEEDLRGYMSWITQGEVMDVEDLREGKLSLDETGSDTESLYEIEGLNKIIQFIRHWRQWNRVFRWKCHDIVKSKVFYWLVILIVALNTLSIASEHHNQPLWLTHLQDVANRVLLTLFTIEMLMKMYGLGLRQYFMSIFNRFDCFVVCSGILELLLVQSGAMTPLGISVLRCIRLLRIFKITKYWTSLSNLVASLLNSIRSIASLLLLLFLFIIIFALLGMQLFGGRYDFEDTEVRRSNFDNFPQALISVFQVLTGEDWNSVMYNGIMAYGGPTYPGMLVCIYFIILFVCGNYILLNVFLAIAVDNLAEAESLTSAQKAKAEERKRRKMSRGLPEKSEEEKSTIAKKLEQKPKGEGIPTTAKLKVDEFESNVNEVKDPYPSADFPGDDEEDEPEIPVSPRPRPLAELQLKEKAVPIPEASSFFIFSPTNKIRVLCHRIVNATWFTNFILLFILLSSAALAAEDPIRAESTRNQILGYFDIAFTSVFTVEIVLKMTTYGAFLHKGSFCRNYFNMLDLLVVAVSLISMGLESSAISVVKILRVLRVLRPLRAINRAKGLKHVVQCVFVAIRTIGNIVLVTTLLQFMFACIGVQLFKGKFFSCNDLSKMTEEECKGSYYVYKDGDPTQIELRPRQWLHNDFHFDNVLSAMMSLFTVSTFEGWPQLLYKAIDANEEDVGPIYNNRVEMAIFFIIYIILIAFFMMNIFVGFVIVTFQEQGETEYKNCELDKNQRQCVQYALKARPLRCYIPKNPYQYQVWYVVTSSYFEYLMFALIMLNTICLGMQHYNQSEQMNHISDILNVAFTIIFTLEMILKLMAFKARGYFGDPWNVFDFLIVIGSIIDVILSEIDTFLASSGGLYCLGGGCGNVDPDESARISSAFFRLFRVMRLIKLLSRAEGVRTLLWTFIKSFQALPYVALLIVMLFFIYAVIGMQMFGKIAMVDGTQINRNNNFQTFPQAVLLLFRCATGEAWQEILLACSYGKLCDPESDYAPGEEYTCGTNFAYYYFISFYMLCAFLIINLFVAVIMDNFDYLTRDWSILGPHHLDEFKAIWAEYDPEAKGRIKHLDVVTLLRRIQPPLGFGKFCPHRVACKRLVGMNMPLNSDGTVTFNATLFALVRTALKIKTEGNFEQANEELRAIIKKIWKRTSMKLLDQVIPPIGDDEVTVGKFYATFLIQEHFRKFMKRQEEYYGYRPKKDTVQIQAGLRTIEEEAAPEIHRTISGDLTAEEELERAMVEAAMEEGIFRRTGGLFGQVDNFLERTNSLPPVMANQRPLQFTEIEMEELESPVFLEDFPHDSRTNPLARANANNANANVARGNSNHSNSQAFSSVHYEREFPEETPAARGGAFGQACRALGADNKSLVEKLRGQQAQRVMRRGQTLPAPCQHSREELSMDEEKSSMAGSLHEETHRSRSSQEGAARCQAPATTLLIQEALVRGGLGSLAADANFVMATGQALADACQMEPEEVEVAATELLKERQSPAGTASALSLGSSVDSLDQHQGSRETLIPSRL
T2 sequence (A0A286X7I0 1-1867): as above
T3 sequence (O35505 whole entry): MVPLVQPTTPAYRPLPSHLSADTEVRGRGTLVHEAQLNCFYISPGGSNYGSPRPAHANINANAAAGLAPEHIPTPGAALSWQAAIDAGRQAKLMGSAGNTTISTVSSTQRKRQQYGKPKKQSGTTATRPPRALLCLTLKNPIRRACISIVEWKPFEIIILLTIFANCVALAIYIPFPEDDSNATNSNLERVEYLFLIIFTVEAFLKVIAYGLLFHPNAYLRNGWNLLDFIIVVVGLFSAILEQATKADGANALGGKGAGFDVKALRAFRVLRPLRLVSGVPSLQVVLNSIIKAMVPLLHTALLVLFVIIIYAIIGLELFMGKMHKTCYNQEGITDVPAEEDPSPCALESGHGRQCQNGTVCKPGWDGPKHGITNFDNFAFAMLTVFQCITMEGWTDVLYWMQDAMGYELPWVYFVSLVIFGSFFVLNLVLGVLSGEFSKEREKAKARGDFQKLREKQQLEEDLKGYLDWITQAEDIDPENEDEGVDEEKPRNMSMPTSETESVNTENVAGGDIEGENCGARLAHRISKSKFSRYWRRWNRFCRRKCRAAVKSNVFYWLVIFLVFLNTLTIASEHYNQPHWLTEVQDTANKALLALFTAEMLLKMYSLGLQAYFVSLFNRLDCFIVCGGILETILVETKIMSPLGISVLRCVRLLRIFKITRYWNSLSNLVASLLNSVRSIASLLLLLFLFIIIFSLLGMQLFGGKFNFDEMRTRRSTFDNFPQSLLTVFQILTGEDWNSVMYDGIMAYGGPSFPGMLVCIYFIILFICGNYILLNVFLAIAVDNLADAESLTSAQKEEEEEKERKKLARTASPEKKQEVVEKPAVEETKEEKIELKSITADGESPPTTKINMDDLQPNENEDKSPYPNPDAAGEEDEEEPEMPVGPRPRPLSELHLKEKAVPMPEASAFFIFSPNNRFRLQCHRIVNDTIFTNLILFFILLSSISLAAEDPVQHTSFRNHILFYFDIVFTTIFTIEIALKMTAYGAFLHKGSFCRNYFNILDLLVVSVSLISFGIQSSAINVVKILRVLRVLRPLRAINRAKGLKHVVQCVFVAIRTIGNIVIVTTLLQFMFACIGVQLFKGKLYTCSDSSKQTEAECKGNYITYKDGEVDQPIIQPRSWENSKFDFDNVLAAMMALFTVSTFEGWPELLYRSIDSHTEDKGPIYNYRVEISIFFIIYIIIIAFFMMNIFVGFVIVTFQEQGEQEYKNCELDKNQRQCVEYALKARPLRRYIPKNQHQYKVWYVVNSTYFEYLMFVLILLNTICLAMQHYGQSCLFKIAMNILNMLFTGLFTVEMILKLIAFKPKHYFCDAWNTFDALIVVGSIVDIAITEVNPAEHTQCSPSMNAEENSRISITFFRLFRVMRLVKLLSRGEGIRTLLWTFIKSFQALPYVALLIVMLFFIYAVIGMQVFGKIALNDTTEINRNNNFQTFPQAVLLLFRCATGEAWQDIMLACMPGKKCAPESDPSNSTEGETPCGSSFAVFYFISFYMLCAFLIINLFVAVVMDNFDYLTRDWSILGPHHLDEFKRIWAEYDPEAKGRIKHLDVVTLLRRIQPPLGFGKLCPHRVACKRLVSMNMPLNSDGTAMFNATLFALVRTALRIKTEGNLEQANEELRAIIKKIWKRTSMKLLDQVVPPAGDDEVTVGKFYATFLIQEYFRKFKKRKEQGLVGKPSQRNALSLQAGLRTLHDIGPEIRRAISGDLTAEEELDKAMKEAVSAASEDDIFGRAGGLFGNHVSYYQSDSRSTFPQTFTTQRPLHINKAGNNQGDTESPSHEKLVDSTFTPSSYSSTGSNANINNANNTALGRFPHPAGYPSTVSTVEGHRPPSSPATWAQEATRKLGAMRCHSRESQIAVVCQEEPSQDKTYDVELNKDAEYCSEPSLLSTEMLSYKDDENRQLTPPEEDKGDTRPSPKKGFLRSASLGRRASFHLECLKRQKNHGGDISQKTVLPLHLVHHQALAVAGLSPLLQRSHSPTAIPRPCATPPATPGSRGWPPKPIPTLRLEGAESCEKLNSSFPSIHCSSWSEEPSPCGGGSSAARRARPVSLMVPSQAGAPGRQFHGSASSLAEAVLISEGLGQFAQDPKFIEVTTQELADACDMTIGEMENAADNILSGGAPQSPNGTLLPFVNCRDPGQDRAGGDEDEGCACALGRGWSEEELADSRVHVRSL

| IC50 [1, 5] | Compound | further results |
| --- | --- | --- |
| 420 ± 67 nM | COC(=O)C1=C(C)NC(C)=C(C(=O)OC(C)C)C1c1cccc([N+](=O)[O-])c1 (single isomer, unassigned; (+)) [(+)Bay e 6927, isopropylmethyl 1,4-dihydro-2,6-dimethyl-4-(3-nitrophenyl)-3,5-pyridinedicarboxylate] |  |
| 198 ± 40 nM | COC(=O)C1=C(C)NC(C)=C(C(=O)OC(C)C)C1c1cccc2nonc12 (single isomer, unassigned; (-)) [(-)205-034, isopropyl 4-(2,1,3-benzoxadiazole-4-yl)-1,4-dihydro-2,6-dimethyl-5-methoxycarbonylpyridine-3-carboxylate] |  |
| 7 ± 0.8 nM | COC(=O)C1=C(C)NC(C)=C(C(=O)OCCN(C)Cc2ccccc2)C1c1cccc([N+](=O)[O-])c1 (single isomer, unassigned; (+)) [(+)Nicardipine, 2,6-dimethyl-4-(3 nitrophenyl)-1,4-dihydropyridine-3,5-dicarboxylic acid 3-2(N-benzyl-N-methylamino)-ethylester-5-methylester] |  |
| 190 ± 50 nM | COc1ccc(CCN(C)CCCC(C#N)(c2cc(OC)c(OC)c(OC)c2)C(C)C)cc1OC (single isomer, unassigned; (+)) [(+)Methoxyverapamil, Methoxyverapamil] |  |

The next lines start with the compound.

| Compound | IC50 [1, 5] | further results |
| --- | --- | --- |
| COC(=O)C1=C(C)NC(C)=C(C(=O)OCCN(C)Cc2ccccc2)C1c1cccc([N+](=O)[O-])c1 (single isomer, unassigned; (-)) [(-)Nicardipine, 2,6-dimethyl-4-(3 nitrophenyl)-1,4-dihydropyridine-3,5-dicarboxylic acid 3-2(N-benzyl-N-methylamino)-ethylester 5-methylester] | 42 ± 3 nM |  |
| COc1ccc(CCN(C)CCC[C@@](C#N)(c2cc(OC)c(OC)c(OC)c2)C(C)C)cc1OC [(-)Methoxyverapamil, Methoxyverapamil] | 21 ± 8 nM |  |
| CCOC(=O)C1=C(C)NC2=C(C(=O)OC2)C1c1ccccc1OC(F)F (stereo not drawn) [CGP 28392] | 1250 ± 180 nM |  |
| COc1ccc([C@H]2Sc3ccccc3N(CCN(C)C)C(=O)[C@H]2OC(C)=O)cc1 [l-cis-Diltiazem] |  | IC50 [1]: 3000 ± 1600 nM |
| CCOC(=O)C1=C(C)NC(C)=C(C(=O)OCCNC(=O)CCc2ccc(O)c([125I])c2)C1c1ccccc1C(F)(F)F (stereo not drawn) [^125 I-labelled 1,4-dihydropyridine] |  | Kd ([2]; muscle membranes, read-out: dissociation constant (KD)): 0.35 nM; Kd ([2]; skeletal muscle membranes, read-out: dissociation constant (conclusion)): < 1 nM; stability (conclusion) [3]: sufficient stability; radiochemical impurities (stability) ([3]; 50 mM TRIS HCl pH 7.4, 25° C., 4 hours, muscle membrane in buffer, 25° C., storage in benzene or absolute ethanol at -20° C. up to 21 days): ≤ 10%; Kd [4]: < 1 nM |
| CCOC(=O)C1=C(C)NC(C)=C(C(=O)O)C1c1cccc([N+](=O)[O-])c1 (stereo not drawn) [Bay M 5579] |  | IC50 [1, 6]: 1860 ± 300 nM |
| COC(=O)C1=C(C)NC(C)=C(C(=O)OC(C)C)C1c1cccc2nonc12 (single isomer, unassigned; (+)) [(+)205-033, isopropyl 4-(2,1,3-benzoxadiazole-4-yl)-1,4-dihydro-2,6-dimethyl-5-methoxycarbonylpyridine-3-carboxylate] | 2 ± 0.05 nM |  |
| 1,4-dihydro-2,6-dimethyl-4-(2-trifluoromethylphenyl)-3,5-pyridinecarboxylic acid 2-(aminoethyl)ethyl ester [Bay K 8644] |  | IC50 [1, 6]: 37 ± 5 nM |
| COC(=O)C1=C(C)NC(C)=C(C(=O)OC(C)C)C1c1cccc([N+](=O)[O-])c1 (single isomer, unassigned; (-)) [(-)Bay e 6927, isopropylmethyl 1,4-dihydro-2,6-dimethyl-4-(3-nitrophenyl)-3,5-pyridinedicarboxylate] | 3 ± 0.04 nM |  |
| COc1ccc([C@@H]2Sc3ccccc3N(CCN(C)C)C(=O)[C@@H]2OC(C)=O)cc1 [d-cis-Diltiazem] |  | EC50 [1]: 960 ± 310 nM |
